Laboratory results reported in US12643910B2, “Substituted pyrazolo[3,4-b]pyridines as ectonucleotide pyrophosphatase/phosphodiesterase 1 (ENPP1) modulators” (SANFORD BURNHAM PREBYS MEDICAL DISCOVERY INSTITUTE, priority 2019, dated 2026).

Assays:
ENPP3 = biological target: T1, ENPP3 (Homo sapiens, UniProt O14638); test: ENPP3 Km ATP assay; assay type: biochemical; conditions: ATP at Km
T1 sequence (O14638 1-875): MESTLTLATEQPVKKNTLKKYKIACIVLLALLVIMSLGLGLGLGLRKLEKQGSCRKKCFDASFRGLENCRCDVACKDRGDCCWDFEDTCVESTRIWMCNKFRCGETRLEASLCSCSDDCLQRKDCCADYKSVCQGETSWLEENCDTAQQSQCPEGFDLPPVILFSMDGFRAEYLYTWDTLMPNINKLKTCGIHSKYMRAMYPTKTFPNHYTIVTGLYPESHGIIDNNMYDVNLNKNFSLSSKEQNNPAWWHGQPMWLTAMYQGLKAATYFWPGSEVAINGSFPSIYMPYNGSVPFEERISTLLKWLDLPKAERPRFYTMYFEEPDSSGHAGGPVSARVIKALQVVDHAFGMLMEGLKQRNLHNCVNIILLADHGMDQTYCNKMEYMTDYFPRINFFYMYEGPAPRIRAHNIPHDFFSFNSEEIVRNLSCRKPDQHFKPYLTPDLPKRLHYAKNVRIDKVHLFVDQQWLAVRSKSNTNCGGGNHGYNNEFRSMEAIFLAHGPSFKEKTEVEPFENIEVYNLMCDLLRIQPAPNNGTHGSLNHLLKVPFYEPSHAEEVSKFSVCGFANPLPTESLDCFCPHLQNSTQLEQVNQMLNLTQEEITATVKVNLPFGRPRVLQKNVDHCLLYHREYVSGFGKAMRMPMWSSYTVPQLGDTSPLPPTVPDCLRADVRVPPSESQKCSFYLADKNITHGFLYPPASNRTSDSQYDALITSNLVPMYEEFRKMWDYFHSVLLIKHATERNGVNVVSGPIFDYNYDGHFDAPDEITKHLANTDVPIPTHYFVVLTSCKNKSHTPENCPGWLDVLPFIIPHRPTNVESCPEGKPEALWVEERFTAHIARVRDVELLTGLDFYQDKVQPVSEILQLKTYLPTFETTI

human ENPP1 = biological target: T2, human ENPP1 (Homo sapiens, UniProt P22413); test: ENPP1 assay with ATP substrate (Transcreener AMP2/GMP2 TR-FRET); assay type: biochemical; conditions: 1 hour at room temperature
T2 construct: made in house
T2 sequence (P22413 1-925): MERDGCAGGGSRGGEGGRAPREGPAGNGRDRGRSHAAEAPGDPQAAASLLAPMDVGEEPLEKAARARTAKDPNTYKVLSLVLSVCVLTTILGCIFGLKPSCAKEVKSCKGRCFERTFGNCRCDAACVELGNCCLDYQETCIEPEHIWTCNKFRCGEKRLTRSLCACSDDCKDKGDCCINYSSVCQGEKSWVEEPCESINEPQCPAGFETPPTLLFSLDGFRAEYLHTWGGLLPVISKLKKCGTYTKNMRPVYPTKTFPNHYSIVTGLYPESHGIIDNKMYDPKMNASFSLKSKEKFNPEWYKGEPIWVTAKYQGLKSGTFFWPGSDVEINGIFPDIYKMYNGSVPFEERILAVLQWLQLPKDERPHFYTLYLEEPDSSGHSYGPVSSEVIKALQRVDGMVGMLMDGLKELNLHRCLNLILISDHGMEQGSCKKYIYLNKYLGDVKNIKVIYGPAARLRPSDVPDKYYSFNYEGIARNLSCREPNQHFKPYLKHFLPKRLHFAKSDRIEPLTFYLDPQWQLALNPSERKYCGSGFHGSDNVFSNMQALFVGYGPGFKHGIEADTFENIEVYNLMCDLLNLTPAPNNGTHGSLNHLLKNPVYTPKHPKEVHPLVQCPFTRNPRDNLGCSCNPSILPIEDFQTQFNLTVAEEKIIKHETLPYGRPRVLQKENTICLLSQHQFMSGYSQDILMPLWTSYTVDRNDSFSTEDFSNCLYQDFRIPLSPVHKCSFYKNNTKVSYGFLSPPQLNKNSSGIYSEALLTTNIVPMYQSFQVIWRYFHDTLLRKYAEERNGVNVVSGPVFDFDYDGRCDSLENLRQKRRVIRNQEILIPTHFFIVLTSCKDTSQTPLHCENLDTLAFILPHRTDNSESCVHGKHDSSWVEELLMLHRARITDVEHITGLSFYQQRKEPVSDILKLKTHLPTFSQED
Outline: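 Reaction ran 1 h at room temperature in pH 7.5 Tris with MgCl2, TCEP, Tween 20 and 1% DMSO. ATP was added as a 300 nM stock and enzyme as an 8.5 μM stock. After EDTA stop, AMP was read by TR-FRET tracer displacement. Percent inhibition used enzyme/no-enzyme controls; IC50 was fitted with a variable slope.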

Row | SMILES | IC50 (ENPP3) [µM] | IC50 (human ENPP1) [µM]
1 | COc1cc(S(N)(=O)=O)ccc1CNc1ccnc2c1cnn2C [Example 2.63, 3-Methoxy-4-(((1-methyl-1H-pyrazolo[3,4-b]pyridin-4-yl)amino)methyl)benzenesulfonamide] | 1 to 20 | 0.1 to 1
2 | Fc1ccc(CCCNC2CCN(c3ncnc4c(-c5ccccc5)csc34)CC2)cc1 [Example 3.58, N-(3-(4-Fluorophenyl)propyl)-1-(7-phenylthieno[3,2-d]pyrimidin-4-yl)piperidin-4-amine] | > 20 | 1 to 20
3 | c1ccc(-c2csc3nc(-c4ccccn4)nc(NCc4ccncc4)c23)cc1 [Example 1, 5-Phenyl-2-(pyridin-2-yl)-N-(pyridin-4-ylmethyl)thieno[2,3-d]pyrimidin-4-amine] | > 20 | 0.1 to 1
4 | Cn1nc(-c2ccccn2)c2c(NCc3ccc(S(N)(=O)=O)cc3)nc(Cl)nc21 [Example 2.124, 4-((6-Chloro-1-methyl-3-(2-pyridyl)-1H-pyrazolo[3,4-d]pyrimidin-4-yl)aminomethyl)benzenesulfonamide] | 0.1 to 1 | 0.1 to 1
5 | Cn1ncc2c(NCc3ccc(S(N)(=O)=O)nc3)ccnc21 [Example 2.72, 5-(((1-Methyl-1H-pyrazolo[3,4-b]pyridin-4-yl)amino)methyl)pyridine-2-sulfonamide] | 0.1 to 1 | < 0.1
6 | Cc1nc(N2CCC(NCCCc3ccncc3)CC2)c2cnn(C)c2n1 [Example 2.51, 1-(1,6-Dimethyl-1H-pyrazolo[3,4-d]pyrimidin-4-yl)-N-(3-(pyridin-4-yl)propyl)piperidin-4-amine] | > 20 | > 20
7 | Cn1ncc2c(OCc3ccc(S(N)(=O)=O)cc3)ncnc21 [Example 2.137, 4-((1-Methyl-1H-pyrazolo[3,4-d]pyrimidin-4-yl)oxymethyl)benzenesulfonamide] | 1 to 20 | 1 to 20
8 | Clc1ccc(CNc2nc(-c3ccccn3)nc3scc(-c4ccccc4)c23)cc1 [Example 1.10, (4-Chloro-benzyl)-(5-phenyl-2-pyridin-2-yl-thieno[2,3-d]pyrimidin-4-yl)-amine] | > 20 | > 20
9 | CCN(c1nc(NCc2ccc(S(N)(=O)=O)cc2)c2c(-c3ccccc3)csc2n1)C(C)(C)CO [Example 1.53, 4-((2-(N-Ethyl-N-(1-hydroxy-2-methylpropan-2-yl)amino)-5-phenylthieno[2,3-d]pyrimidin-4-yl)aminomethyl)benzenesulfonamide] | 0.1 to 1 | 0.1 to 1
10 | COc1ccc(CCCNC2CCN(c3ncnc4c(C)csc34)CC2)cc1 [Example 3.32, N-(3-(4-Methoxyphenyl)propyl)-1-(7-methylthieno[3,2-d]pyrimidin-4-yl)piperidin-4-amine] | > 20 | 0.1 to 1
11 | NS(=O)(=O)c1ccc(CNc2nc(NCc3ccccc3)nc3scc(-c4ccccc4)c23)cc1 [Example 1.41, 4-(((2-(Benzylamino)-5-phenylthieno[2,3-d]pyrimidin-4-yl)amino)methyl)-benzenesulfonamide] | 0.1 to 1 | < 0.1
12 | NS(=O)(=O)c1ccc(CNc2nc(-c3ccccn3)nc3scc(-c4ccccc4)c23)cc1Cl [Example 1.18, 2-Chloro-4-(((5-phenyl-2-(pyridin-2-yl)thieno[2,3-d]pyrimidin-4-yl)amino)methyl)-benzenesulfonamide] | 0.1 to 1 | < 0.1
13 | Cn1ncc2c(NCc3ccc(S(N)(=O)=O)cc3)nncc21 [Example 2.56, 4-(((1-Methyl-1H-pyrazolo[3,4-d]pyridazin-4-yl)amino)methyl)benzenesulfonamide] | > 20 | > 20
14 | COCCCNc1nc(NCc2ccc(S(N)(=O)=O)cc2)c2c(-c3ccccc3)csc2n1 [Example 1.56, 4-((2-(3-Methoxypropyl)amino-5-phenylthieno[2,3-d]pyrimidin-4-yl)aminomethyl)-benzenesulfonamide] | < 0.1 | < 0.1
15 | Cc1nc(NCc2ccc(S(N)(=O)=O)cc2)c2c3c(sc2n1)CCCC3 [Example 1.64, 4-((2-Methyl-5,6,7,8-tetrahydro[1]benzothieno[2,3-d]pyrimidin-4-yl)aminomethyl)-benzenesulfonamide] | 1 to 20 | > 20
16 | COc1ccc(CNc2nc(-c3ccccn3)nc3scc(-c4ccccc4)c23)cc1 [Example 1.3, N-(4-Methoxybenzyl)-5-phenyl-2-(pyridin-2-yl)thieno[2,3-d]pyrimidin-4-amine] | > 20 | > 20
17 | Cc1csc2c(N3CCC(NC(=O)/C=C/c4ccncc4Cl)CC3)ncnc12 [Example 3.11, (E)-3-(3-Chloropyridin-4-yl)-N-(1-(7-methylthieno[3,2-d]pyrimidin-4-yl)piperidin-4-yl)acrylamide] | > 20 | 1 to 20
18 | Cc1csc2c(N3CCC(NCCCc4ccc(F)cc4)CC3)ncnc12 [Example 3.5, N-(3-(4-Fluorophenyl)propyl)-1-(7-methylthieno[3,2-d]pyrimidin-4-yl)piperidin-4-amine] | > 20 | 0.1 to 1
19 | Cc1csc2c(N3CCC(NC(=O)CCc4cccc(F)c4)CC3)ncnc12 [Example 3.39, 3-(3-Fluorophenyl)-N-(1-(7-methylthieno[3,2-d]pyrimidin-4-yl)piperidin-4-yl)propanamide] | > 20 | > 20
20 | CCN(CC)c1cc(NCc2ccc(S(N)(=O)=O)cc2)c2cnn(C)c2n1 [Example 2.79, 4-(((6-(Diethylamino)-1-methyl-1H-pyrazolo[3,4-b]pyridin-4-yl)amino)methyl)-benzenesulfonamide] | 1 to 20 | > 20
21 | NS(=O)(=O)c1ccc(CNc2nc(-c3ccccn3)nc3scc(-c4ccccc4)c23)c(Cl)c1 [Example 1.21, 3-Chloro-4-(((5-phenyl-2-(pyridin-2-yl)thieno[2,3-d]pyrimidin-4-yl)amino)methyl)-benzenesulfonamide] | 0.1 to 1 | < 0.1
22 | Cc1csc2c(N3CCC(NC(=O)CCc4ccnc(F)c4)CC3)ncnc12 [Example 3.36, 3-(2-Fluoropyridin-4-yl)-N-(1-(7-methylthieno[3,2-d]pyrimidin-4-yl)piperidin-4-yl)propanamide] | > 20 | 1 to 20
23 | COc1nc(NCc2ccc(S(N)(=O)=O)s2)c2cnn(C)c2n1 [Example 2.95, 5-((6-Methoxy-1-methyl-1H-pyrazolo[3,4-d]pyrimidin-4-yl)aminomethyl)thiophene-2-sulfonamide] | 0.1 to 1 | 0.1 to 1
24 | NS(=O)(=O)c1ccc(CNc2ncnc3c2cnn3-c2ccccc2)cc1 [Example 2.38, 4-(((1-Phenyl-1H-pyrazolo[3,4-d]pyrimidin-4-yl)amino)methyl)benzenesulfonamide] | 1 to 20 | 1 to 20
25 | CCc1nc(N2CCC(NCCCc3ccncc3)CC2)c2scc(C)c2n1 [Example 3.54, 1-(2-Ethyl-7-methylthieno[3,2-d]pyrimidin-4-yl)-N-(3-(pyridin-4-yl)propyl)piperidin-4-amine] | > 20 | > 20
